Reference: PubChem BioAssay (NCI)
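96-well plates; 48 h exposure; 5 concentrations. Endpoints by linear interpolation between flanking doses. Not reached: highest tested concentration assigned. GI50 is the concentration that inhibits growth by half. Definition used: TGI = concentration required for complete inhibition of growth.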

What was measured:
Test in all cases: growth of human tumour cells (NCI), 48 h
SK-OV-3 ovarian = system: SK-OV-3 ovarian
TK-10 renal = system: TK-10 renal
OVCAR-4 ovarian = system: OVCAR-4 ovarian
NCI-H23 lung = system: NCI-H23 lung
UACC-62 melanoma = system: UACC-62 melanoma
SF-268 CNS = system: SF-268 CNS
UO-31 renal = system: UO-31 renal
SK-MEL-28 melanoma = system: SK-MEL-28 melanoma
KM12 colon = system: KM12 colon
SK-MEL-5 melanoma = system: SK-MEL-5 melanoma

C/C(=N\NC(=O)c1ccccc1O)c1c(O)cc(C)oc1=O
TGI (SK-OV-3 ovarian): 86.7 µM | TGI (TK-10 renal): > 100 µM | TGI (OVCAR-4 ovarian): > 100 µM | TGI (NCI-H23 lung): > 100 µM | TGI (UACC-62 melanoma): > 100 µM | TGI (SF-268 CNS): > 100 µM | TGI (UO-31 renal): > 100 µM | TGI (SK-MEL-28 melanoma): > 100 µM | TGI (KM12 colon): > 100 µM | TGI (SK-MEL-5 melanoma): > 100 µM

C/C(COc1ccc2oc(-c3ccccc3)cc(=O)c2c1)=N\O
GI50 (SK-OV-3 ovarian): > 100 µM | TGI (SK-OV-3 ovarian): > 100 µM | GI50 (TK-10 renal): 22.6 µM | TGI (TK-10 renal): 94.7 µM | GI50 (OVCAR-4 ovarian): > 100 µM | TGI (OVCAR-4 ovarian): > 100 µM | GI50 (NCI-H23 lung): 88.5 µM | TGI (NCI-H23 lung): > 100 µM | GI50 (UACC-62 melanoma): 16.8 µM | TGI (UACC-62 melanoma): 81.4 µM | GI50 (SF-268 CNS): 24.3 µM | TGI (SF-268 CNS): > 100 µM | GI50 (UO-31 renal): 11.2 µM | TGI (UO-31 renal): > 100 µM | GI50 (SK-MEL-28 melanoma): 23.1 µM | TGI (SK-MEL-28 melanoma): > 100 µM | GI50 (KM12 colon): 2.39 µM | TGI (KM12 colon): 39.7 µM

Cc1ccc(S(=O)(=O)NC(Cc2ccccc2)C(=O)CCl)cc1 (stereo not drawn)
TGI (SK-OV-3 ovarian): 47 µM | TGI (TK-10 renal): 30.9 µM | TGI (OVCAR-4 ovarian): 18.9 µM | TGI (NCI-H23 lung): 26.8 µM | TGI (UACC-62 melanoma): 26.4 µM | TGI (SF-268 CNS): 31.4 µM | TGI (UO-31 renal): 27 µM | TGI (SK-MEL-28 melanoma): 32.9 µM | TGI (SK-MEL-5 melanoma): 25 µM

CC(=O)NNc1ncc(C(=O)/C=C/c2ccccc2C)s1
TGI (SK-OV-3 ovarian): > 100 µM | TGI (TK-10 renal): > 100 µM | TGI (NCI-H23 lung): > 100 µM | TGI (UACC-62 melanoma): > 100 µM | TGI (SF-268 CNS): > 100 µM | TGI (UO-31 renal): > 100 µM | TGI (SK-MEL-28 melanoma): > 100 µM | TGI (KM12 colon): > 100 µM | TGI (SK-MEL-5 melanoma): > 100 µM

CCCCSC1CCSc2c1ccc1ccccc21 (stereo not drawn)
TGI (SK-OV-3 ovarian): > 100 µM | TGI (TK-10 renal): > 100 µM | TGI (OVCAR-4 ovarian): > 100 µM | TGI (NCI-H23 lung): > 100 µM | TGI (UACC-62 melanoma): > 100 µM | TGI (UO-31 renal): > 100 µM | TGI (SK-MEL-28 melanoma): > 100 µM | TGI (KM12 colon): > 100 µM | TGI (SK-MEL-5 melanoma): > 100 µM

CC(=O)N(N=O)c1ccc(N(N=O)C(C)=O)cc1
TGI (SK-OV-3 ovarian): > 100 µM | TGI (OVCAR-4 ovarian): > 100 µM | TGI (NCI-H23 lung): > 100 µM | TGI (UACC-62 melanoma): > 100 µM | TGI (SF-268 CNS): > 100 µM | TGI (UO-31 renal): > 100 µM | TGI (SK-MEL-28 melanoma): > 100 µM | TGI (SK-MEL-5 melanoma): > 100 µM

Cn1nc(-c2ccccc2)c2c(/C=C/c3ccc(F)cc3)onc2c1=O
TGI (SK-OV-3 ovarian): > 100 µM | TGI (TK-10 renal): > 100 µM | TGI (NCI-H23 lung): > 100 µM | TGI (UACC-62 melanoma): > 100 µM | TGI (SF-268 CNS): > 100 µM | TGI (UO-31 renal): > 100 µM | TGI (SK-MEL-28 melanoma): > 100 µM | TGI (SK-MEL-5 melanoma): > 100 µM

CO/S(=N/S(=O)(=O)c1ccccc1)c1ccccc1[N+](=O)[O-] (stereo not drawn)
TGI (SK-OV-3 ovarian): > 100 µM | TGI (OVCAR-4 ovarian): > 100 µM | TGI (NCI-H23 lung): > 100 µM | TGI (UACC-62 melanoma): > 100 µM | TGI (SF-268 CNS): > 100 µM | TGI (UO-31 renal): > 100 µM | TGI (SK-MEL-28 melanoma): > 100 µM | TGI (KM12 colon): > 100 µM | TGI (SK-MEL-5 melanoma): > 100 µM

CCCCCCCCCCNC(=S)OC
TGI (SK-OV-3 ovarian): > 100 µM | TGI (TK-10 renal): > 100 µM | TGI (OVCAR-4 ovarian): > 100 µM | TGI (NCI-H23 lung): > 100 µM | TGI (UACC-62 melanoma): 65 µM | TGI (SF-268 CNS): > 100 µM | TGI (UO-31 renal): 85.8 µM | TGI (SK-MEL-28 melanoma): > 100 µM | TGI (SK-MEL-5 melanoma): 54.1 µM

C=C1C2CC(OC(C)=O)C3(C)C(c4ccoc4)OC(=O)[C@@H](O)[C@]13OC1C[C@H](OC(C)=O)C(C)(C)[C@H](C(O)C(=O)OC)[C@]12C (stereo partly drawn)
TGI (SK-OV-3 ovarian): > 100 µM | TGI (TK-10 renal): > 100 µM | TGI (OVCAR-4 ovarian): > 100 µM | TGI (NCI-H23 lung): > 100 µM | TGI (UACC-62 melanoma): > 100 µM | TGI (UO-31 renal): > 100 µM | TGI (SK-MEL-28 melanoma): > 100 µM | TGI (KM12 colon): > 100 µM | TGI (SK-MEL-5 melanoma): > 100 µM
